According to publication PMC7934800, “Amino- and polyaminophthalazin-1(2H)-ones: synthesis, coordination properties, and biological activity” (Beilstein Journal of Organic Chemistry, 2021):

How the values were obtained:
[1] = test system: PC-3 (human prostate cancer cell line); experiment: MTT cytotoxicity assay, PC-3; assay type: cell-based; settings: 72 h of cell treatment, PC-3 cells
Excerpt: (§1) We used the MTT assay to evaluate compounds 5c, 5d, 5f, 5g, 6b, and 6d for their potential activity on cytotoxicity, proliferation and growth of HT-29 (human colon adenocarcinoma cell line), PC-3 (human prostate cancer cell line) and L-929 cells (mouse fibroblast cell line).
(§2) 2.1 Materials and methods:
(§3) Trypsin-EDTA and all media (RPMI 1640, DMEM/F-12K and IMDM) were purchased from Biowest (CytoGen, Poland). Buffered saline (PBS), penicillin-streptomycin solution stabilized, fetal bovine serum (FBS), amino acids solution (MEM), β-mercaptoethanol, dimethyl sulfoxide (DMSO) and MTT 3-(4,5-dimethylthiazol-2-yl)- […] bromide were supplied by Sigma Aldrich Chemical Co (USA).
(§4) All tested cell lines were provided by American Type Culture Collection (ATCC, […]
(§5) Rockville, Manassas,VA, USA). […]
(§6) Cells were maintained in a humidified incubator at 37 °C in a 5% CO2 atmosphere and were regularly screened for mycoplasma contamination. Exponential growth of the cells was controlled by their routine passaging at 90% confluence three times a week using 0.025% trypsin/EDTA.
(§7) 2.3 Cytotoxicity analysis – MTT assay:
(§8) The viability of the cells is associated with their mitochondrial integrity and capacity.
(§9) For that reason, in the MTT microplate assay with 3-(4,5-dimethylthiazol-2-yl)-[…] bromide, first described by Mosmann [ 5], only viable cells with intact metabolism have the ability to incorporate the yellow, water-soluble tetrazolium […]
(§10) dehydrogenase to the violet-blue formazan compound. After dissolving the formazan crystals in an organic solvent, e.g., dimethyl sulfoxide (DMSO), the absorbance of the formazan solution can be measured spectrophotometrically at 570 nm.
(§11) In our research, the MTT assay was used to describe the effect of the tested compounds on cytotoxicity, proliferation and growth of HT-29, PC-3 and L-929 cells.
(§12) Before treatments with the tested compounds the suspension of 8×10^3 cells in 100 µ L medium was transferred to each well of a standard 96-well microplate. Subsequently, the plates were incubated for 24 h (5% CO 2; 37 °C) to ensure cell growth.
(§13) Afterwards, the examined substances at 10 different concentrations were added in 2– […]
(§14) volume of 100 µL medium per well. These concentrations were obtained diluting the compounds first in DMSO and then in medium, which were subsequently used to treat cells cultures in a final DMSO concentration between 0.1 and 1% per well [6] (Da Violante et. al. 2002). As control, the first and last columns were filled only with medium […]
(§15) without studied compounds. Furthermore, blanks (wells without cells) were also […]
(§16) The plates were then incubated for 72 h (37 °C; 5% CO2). Subsequently, 25 µL of fresh MTT solution (5 mg/mL in PBS) was added to each well and the microplates were incubated in a humidified atmosphere for additional 3 h (37 °C; 5% CO2). After the incubation, the MTT solution was replaced by 100 µL of DMSO in order to dissolve formazan complexes and absorbance was immediately measured (microplate reader PowerWaveXS BioTek Instruments, Inc., USA) at 570 nm.
(§17) The IC50 value (concentration of an inhibitor which reduces the absorbance level in the treated cells in comparison to untreated cells by half) representing the cytotoxicity of a substance was evaluated for each studied compound using the GraphPad Prism 7.0 software system (GraphPad Prism Software Inc., USA). To determinate statistical significance between the results one-way variance analysis (ANOVA) was used. The samples homogeneity was tested using Bartlett’s test, followed by Dunnett’s test. All data are presented as the mean of the replicates from three independent experiments, with a significance level of p ≤ 0.05.

[2] = test system: L-929 cells (mouse fibroblast cell line); experiment: MTT cytotoxicity assay, L-929; assay type: cell-based; settings: L929, 72 h of cell treatment, L-929 control (non-cancer) cells
Excerpt: as §1, §2, §3, §4, §5
In addition, the mouse fibroblast cell line
(L-929; ATCC® CCL-1™) was used as a model for non-cancer cells. […]
The L-929 was cultivated in IMDM Medium with 4 mM L-glutamine, 4500 mg/L glucose, and 1500 mg/L sodium bicarbonate supplemented with 10% (v/v) fetal bovine serum (FBS), 1% (v/v) penicillin/streptomycin and 1% (v/v) β-mercaptoethanol.
as §6, §7, §8, §9, §10, §11, §12, §13, §14, §15, §16
as §17, with “with a significance level of p ≤ 0.05.” left out

[3] = test system: HT-29 (human colon adenocarcinoma cell line); experiment: MTT cytotoxicity assay, HT-29; assay type: cell-based; settings: 72 h of cell treatment, HT-29 cells
Excerpt: as §1, §2, §3, §4, §5
The HT-29 cells were cultured in RPMI-1640 medium containing 2 mM L-glutamine, 10 mM HEPES, 1 mM sodium pyruvate, 4500 mg/L glucose and 1500 mg/L sodium bicarbonate, supplemented with 10% (v/v) fetal bovine serum (FBS), 1% (v/v) penicillin/streptomycin and 1% (v/v) MEM amino acid’s solution. […]
as §6, §7, §8, §9, §10, §11, §12, §13, §14, §15, §16, §17

melting point [°C] | SMILES | IC50 [1] [µM] | IC50 [2] [µM] | IC50 [3] [µM]
135 to 136 | Cn1nc(N2CCOCC2)c2ccccc2c1=O [5a] |  |  | 
132 to 134 | Cn1nc(N2CCSCC2)c2ccccc2c1=O [5b] |  |  | 
92 to 93 | Cn1nc(N2CCCCC2)c2ccccc2c1=O [5c] | 46 | 27.4 | 36.7
 | Cn1nc(NC2CCCCC2)c2ccccc2c1=O [5d] | 20.1 | 20.4 | 29.8
86 to 87 | CCCCCCNc1nn(C(C)C)c(=O)c2ccccc12 [5e] |  |  | 
121 to 123 | CC(C)n1nc(NCCc2cccs2)c2ccccc2c1=O [5f] | 27.3 | 20.1 | 27.4
216 to 218 | Cn1nc(NCc2ccc(C(F)(F)F)cc2)c2ccccc2c1=O [5g] | 22.4 | 21.3 | 31.4
108 to 110 | COc1ccc(CNc2nn(C(C)C)c(=O)c3ccccc23)cc1 [5h] |  |  | 
160 to 163 | Cn1nc(N(c2ccccc2)c2ccccn2)c2ccccc2c1=O [5i] |  |  | 
84 to 86 | CCN(CC)CCCC(C)Nc1nn(C)c(=O)c2ccccc12 (centres unmarked) [6b] | 66.3 | 92.9 | 51.6
153 to 155 | CNCCNc1nn(C)c(=O)c2ccccc12 [6d] | 83 | 52.7 | 75.6
58 to 60 | CCN(CC)CCCC(C)Nc1nn(CCN(C)C)c(=O)c2ccccc12 (centres unmarked) [6e] |  |  | 
